Laboratory results reported in US8530512B2, “Broad spectrum gram-positive antimicrobials and anthelmintics with efficacy against drug-resistant strains and Mycobacterium species” (priority 2004, dated 2013).
≈ marks a conversion by molar mass, not a printed value. Like-named read-outs stand apart in the source and are kept apart here.

Columns and labels:
[1] = test system: Staphylococcus aureus ATCC 29213; assay: microbe, parasite or virus in culture; type: cell-based; conditions: ATCC29213
[2] = test system: Staphylococcus aureus MRSA MC-1; assay: microbe, parasite or virus in culture; type: cell-based; conditions: Staphylococcus aureus, MRSA
[3] = test system: Enterococcus faecium VRE 1; assay: microbe, parasite or virus in culture; type: cell-based; conditions: Enterococcus faecium, VRE
Bacillus cereus = assay: microbe, parasite or virus in culture; type: cell-based; conditions: Bacillus cereus
M. smegmatis = assay: MIC assay; type: cell-based; conditions: for MIC: Mycolicibacterium smegmatis, read-out: MIC M. smegmatis
[4] = test system: Corynebacterium pseudodiphthericum; assay: microbe, parasite or virus in culture; type: cell-based; conditions: Corynebacterium pseudodiphtheriticum; Table 4; Corynebacterium pseudodiphthericum; read-out: MIC
Corynebacterium xerosis = assay: microbe, parasite or virus in culture; type: cell-based; conditions: Table 4, read-out: MIC
[5] = test system: Enterococcus faecium VRE 14; assay: microbe, parasite or virus in culture; type: cell-based
[6] = test system: Enterococcus faecalis ATCC 29212; assay: microbe, parasite or virus in culture; type: cell-based; conditions: ATCC29212; Table 4; Enterococcus faecalis ATCC 29212; read-out: MIC
Streptococcus mitis = assay: microbe, parasite or virus in culture; type: cell-based; conditions: Table 4, read-out: MIC
Streptococcus agalactiae = assay: microbe, parasite or virus in culture; type: cell-based; conditions: Table 4, read-out: MIC
Listeria monocytogenes = assay: microbe, parasite or virus in culture; type: cell-based; conditions: Table 4, read-out: MIC
Mycobacterium bovis BCG = assay: microbe, parasite or virus in culture; type: cell-based; conditions: Mycobacterium tuberculosis variant bovis BCG, Table 4, Mycobacterium bovis BCG
[7] = test system: Staphylococcus aureus MW 2; assay: MIC assay; type: cell-based; conditions: MW2, Table 4
Clostridium tertium = assay: MIC assay; type: cell-based; conditions: Table 4
Clostridium novyi A = assay: MIC assay; type: cell-based; conditions: Table 4
Clostridium difficile = assay: MIC assay; type: cell-based; conditions: Clostridioides difficile, Table 4
Propionibacterium acnes = assay: MIC assay; type: cell-based; conditions: Cutibacterium acnes, Table 4
[8] = test system: Peptostreptococcus anaerobius; assay: MIC assay; type: cell-based; conditions: Table 4
[9] = test system: Erysipelothrix rhusiopathiae; assay: MIC assay; type: cell-based; conditions: Table 4
Streptococcus pneumoniae = assay: MIC assay; type: cell-based; conditions: Table 4; Streptococcus pneumoniae (source UWL)
Streptococcus bovis = assay: MIC assay; type: cell-based; conditions: Streptococcus equinus, Table 4
Mycobacterium avium = assay: MIC assay; type: cell-based; conditions: Mycobacterium avium
Mycobacterium chelonae = assay: MIC assay; type: cell-based
Mycobacterium fortuitum = assay: MIC assay; type: cell-based; conditions: Mycolicibacterium fortuitum
[10] = test system: Mycobacterium intracellulare; assay: MIC assay; type: cell-based; conditions: Mycobacterium intracellulare
M. kansasii = assay: MIC assay; type: cell-based; conditions: Mycobacterium kansasii
[11] = test system: methicillin-sensitive S. aureus (MSSA) strains; assay: MIC screening against MSSA strains; type: cell-based; conditions: Table 5, 39 tested
[12] = test system: community-associated methicillin-resistant S. aureus (CA-MRSA) strains; assay: MIC screening against CA-MRSA strains; type: cell-based
[13] = test system: vancomycin-resistant enterococci; assay: microbe, parasite or virus in culture; type: cell-based; conditions: Enterococcus, VRE, read-out: MICs
[14] = test system: Gram-positive bacteria tested; assay: organism not typed; type: cell-based
[15] = test system: Gram-positive bacterial species tested; assay: Minimal Bacterial Concentration Testing (MBC); type: cell-based
Procedure: Following the MIC, the last three wells showing no bacterial growth were diluted and plated onto BHI agar to do MBC testing.

[16] = Safety Testing with Swiss Webster Mice; type: in vivo
C. elegans = assay: motility assay; type: in vivo; design: key to Movement score, 1/1600 / Movement score, 1/800 / Movement score, 1/400 / Movement score, 1/200 / Movement score, 1/100: normal (−); slow (+); very slow (++); not motile/paralyzed (+++); conditions: for Movement score, 1/100: dilution 1/100 of stock (10.24 μg/μL; SK-03-92 1.024 μg/μL); for Movement score, 1/100 / Movement score, 1/200 / Movement score, 1/400 / Movement score, 1/800 / Movement score, 1/1600: Ive 1 ng/μL in all wells; for Movement score, 1/200: dilution 1/200 of stock (10.24 μg/μL; SK-03-92 1.024 μg/μL); for Movement score, 1/400: dilution 1/400 of stock (10.24 μg/μL; SK-03-92 1.024 μg/μL); for Movement score, 1/800: dilution 1/800 of stock (10.24 μg/μL; SK-03-92 1.024 μg/μL); for Movement score, 1/1600: dilution 1/1600 of stock (10.24 μg/μL; SK-03-92 1.024 μg/μL), overnight 20° C.
[17] = test system: S. aureus strains tested, including MRSA; assay: MIC assay
[18] = test system: Enterococcus sp., including VRE strains; assay: MIC assay; conditions: read-out: MICs
S. aureus MW2 = assay: murine thigh abscess model of infection; conditions: for CFU/thigh reduced: single intraperitoneal injection
C. elegans L1 larvae = assay: developmental assay; type: in vivo; design: key to Developmental score, 1/1600 / Developmental score, 1/800 / Developmental score, 1/400 / Developmental score, 1/200 / Developmental score, 1/100: dead (+++); distressed (++); slightly delayed (+); the same as M9-only untreated wells (−); conditions: after four days, Ive 1 ng/μL in each well
[19] = Staphylococcus aureus, Table 6, read-out: MIC S. aureus ATCC 29213
[20] = Table 6, read-out: MIC M. avium
[21] = Table 6, read-out: MIC M. chelonae
[22] = Table 6, read-out: MIC M. fortuitum
[23] = Table 6, read-out: MIC M. intracellulare
[24] = Table 6, read-out: MIC M. kansasii

## COc1cc(O)cc(/C=C/c2cc3ccccc3s2)c1 [SK-03-92, (E)-3-(2-(benzo[b]thiophen-2-yl)vinyl)-5-methoxyphenol]
[1]; Table 4, Staphylococcus aureus ATCC 29213, read-out: MIC
  MIC: 2 µg/mL (≈ 7.08 µM)
[1]; [19]
  MIC: 4 µg/mL (≈ 14.2 µM)
[2]; read-out: MIC S. aureus MC-1
  MIC: 2 µg/mL (≈ 7.08 µM)
[3]
  MIC: 2 µg/mL (≈ 7.08 µM)
Bacillus cereus; Table 4, read-out: MIC
  MIC: 1 µg/mL (≈ 3.54 µM)
M. smegmatis; Table 6
  MIC: 32 µg/mL (≈ 113 µM)
[4]
  MIC: 2 µg/mL (≈ 7.08 µM)
Corynebacterium xerosis
  MIC: 2 µg/mL (≈ 7.08 µM)
[5]
  MIC: 2 µg/mL (≈ 7.08 µM)
[6]
  MIC: 4 µg/mL (≈ 14.2 µM)
Streptococcus mitis
  MIC: 2 µg/mL (≈ 7.08 µM)
Streptococcus agalactiae
  MIC: 2 µg/mL (≈ 7.08 µM)
Listeria monocytogenes
  MIC: 2 µg/mL (≈ 7.08 µM)
Mycobacterium bovis BCG
  MIC: 25 µg/mL (≈ 88.5 µM)
[7]
  MIC: 2 µg/mL (≈ 7.08 µM)
Clostridium tertium
  MIC: 1 µg/mL (≈ 3.54 µM)
Clostridium novyi A
  MIC: 2 µg/mL (≈ 7.08 µM)
Clostridium difficile
  MIC: 2 µg/mL (≈ 7.08 µM)
Propionibacterium acnes
  MIC: 2 µg/mL (≈ 7.08 µM)
[8]
  MIC: 1 µg/mL (≈ 3.54 µM)
[9]
  MIC: 8 µg/mL (≈ 28.3 µM)
Streptococcus pneumoniae
  MIC: 16 µg/mL (≈ 56.7 µM)
Streptococcus bovis
  MIC: 2 µg/mL (≈ 7.08 µM)
Mycobacterium avium; [20]
  MIC: 16 µg/mL (≈ 56.7 µM)
Mycobacterium avium; Table 4, read-out: MIC
  MIC: 16 µg/mL (≈ 56.7 µM)
Mycobacterium chelonae; Table 4, Mycobacterium chelonae, read-out: MIC
  MIC: 32 µg/mL (≈ 113 µM)
Mycobacterium chelonae; [21]
  MIC: 32 µg/mL (≈ 113 µM)
Mycobacterium fortuitum; Table 4, Mycobacterium fortuitum, read-out: MIC
  MIC: 16 µg/mL (≈ 56.7 µM)
Mycobacterium fortuitum; [22]
  MIC: 16 µg/mL (≈ 56.7 µM)
[10]; [23]
  MIC: 32 µg/mL (≈ 113 µM)
[10]; Table 4, read-out: MIC
  MIC: 32 µg/mL (≈ 113 µM)
M. kansasii; Table 4, Mycobacterium kamasii, read-out: MIC
  MIC: 16 µg/mL (≈ 56.7 µM)
M. kansasii; [24]
  MIC: 16 µg/mL (≈ 56.7 µM)
[11]
  MIC range: 1 to 2 µg/mL
[12]; Staphylococcus aureus, many MRSA strains
  MIC: 2 to 4 µg/mL (≈ 7.08 to 14.2 µM)
[12]; Table 5, CA-MRSA, 43 tested
  MIC range: 2 to 4 µg/mL
[13]
  MIC: 2 µg/mL (≈ 7.08 µM)
[14]; all of the Gram-positive bacterial species tested
  killing of Gram-positive bacterial species: killed
[14]; variety of other Gram-positive species
  MIC: 1 to 8 µg/mL (≈ 3.54 to 28.3 µM)
[15]
  MBC analysis: bactericidal
[16]; intraperitoneal injections up to 3 g/kg, preliminary
  harm to mice: did not appear to harm the mice
[16]; ~2 g/kg dose intraperitoneally and after a repeated dose
  harm to mice: did not harm mice
C. elegans
  Movement score, 1/100: +
  Movement score, 1/200: −
  Movement score, 1/400: −
  Movement score, 1/800: −
  Movement score, 1/1600: −
[17]; Staphylococcus aureus, MRSA, read-out: MICs
  MIC: 2 to 4 µg/mL (≈ 7.08 to 14.2 µM)
[17]; comparison among analogs of Table 6
  relative activity against S. aureus: best activity
[18]
  MIC: 2 to 4 µg/mL (≈ 7.08 to 14.2 µM)
S. aureus MW2; high dose, preliminary
  CFU/thigh reduced: 3 logs
S. aureus MW2; low dose, preliminary
  CFU/thigh reduced: 2.5 logs
S. aureus MW2; thigh abscess model
  in vivo efficacy: in vivo efficacy
S. aureus MW2; two days after drug injection, preliminary
  drop in the bacterial counts: 2-3 log

## COc1cc(O)cc(/C=C/Oc2ccc3ccccc3c2)c1 [SK-04-23]
[1]; [19]
  MIC: 8 µg/mL (≈ 27.4 µM)
[1]; Staphylococcus aureus, per-compound listing, Example 6, read-out: MIC S. aureus
  MIC: 16 µg/mL (≈ 54.7 µM)
[2]; read-out: MIC MRSA
  MIC: 8 µg/mL (≈ 27.4 µM)
[2]; read-out: MIC S. aureus MC-1
  MIC: 8 µg/mL (≈ 27.4 µM)
Bacillus cereus; per-compound listing, Example 6, read-out: MIC B. cereus
  MIC: 8 µg/mL (≈ 27.4 µM)
M. smegmatis; per-compound listing, Example 6
  MIC: 128 µg/mL (≈ 438 µM)
M. smegmatis; Table 6
  MIC M. smegmatis: 128 µg/mL (≈ 438 µM)
Mycobacterium avium; [20]
  MIC: 64 µg/mL (≈ 219 µM)
Mycobacterium chelonae; [21]
  MIC: 128 µg/mL (≈ 438 µM)
Mycobacterium fortuitum; [22]
  MIC: 128 µg/mL (≈ 438 µM)
[10]; [23]
  MIC: 64 µg/mL (≈ 219 µM)
M. kansasii; [24]
  MIC: 64 µg/mL (≈ 219 µM)
C. elegans
  Movement score, 1/100: ++
  Movement score, 1/200: ++
  Movement score, 1/400: ++
  Movement score, 1/800: ++
  Movement score, 1/1600: +
C. elegans; lowest concentrations tested, at least triplicate
  effect on worms at the lowest concentrations tested: reduced motility, paralysis, or death
C. elegans L1 larvae; dilution 1/100
  Developmental score, 1/100: +++
C. elegans L1 larvae; dilution 1/200
  Developmental score, 1/200: +++
C. elegans L1 larvae; dilution 1/400
  Developmental score, 1/400: +
C. elegans L1 larvae; dilution 1/800
  Developmental score, 1/800: −
C. elegans L1 larvae; dilution 1/1600
  Developmental score, 1/1600: −
